A melting point compilation (Tetko et al.; mined from patent text by program, amines drawn as free bases though some values may be those of a salt)

| SMILES | melting point [°C] |
| --- | --- |
| C=CCc1cc2c(c(O)c1C)C(=O)c1c(OC)c3c(c(O)c1C2=O)-c1c(cc2cnn(-c4ccccc4)c(=O)c2c1O)CC3 | 163 |
| CC1(C2CCCC2)Cc2cc(OCCCCCCC(=O)O)c(Cl)c(Cl)c2C1=O (stereo not drawn) | 107 to 110 |
| CCCCOCCOc1ccc(-c2ccc3c(c2)C=C(C(=O)Nc2ccc(/C(Cc4nccn4CCC)=N/O)cc2)CCN3CC(C)C)cc1 | 154 |
| COC(=O)C(=O)c1cn2c3c(cccc13)C(Br)CC2 (stereo not drawn) | 120 to 122 |
| CC1(C)Cc2ccccc2C(c2cnc3ccccc3c2)N1 (stereo not drawn) | 117 to 122 |
| COC(=O)C(=O)c1nccn1Cc1cccs1 | 72.5 to 74.5 |
| Cn1ncnc1COc1cc(N)c2cnn(-c3ccccc3)c2n1 | 164 to 166 |
| Cc1cc(-c2ccc(C(F)(F)F)nc2)nc(-c2ccnc(-c3cccc(S(N)(=O)=O)c3)c2)n1 | 255 |
| O=C(c1cccs1)c1cnn2c(-c3cccc(-c4nnn(CCN5CCOCC5)n4)c3)ccnc12 | 103 |
| CCCCCCCCCCCC/C(=C\C=C\C(=O)O)c1ccc(OC)cc1 | 85 to 88 |
| O=C(c1ccccc1)N(CCN1CCC(Nc2nc3ccccc3n2Cc2ccc(F)cc2)CC1)c1nccs1 | 156 |
| NS(=O)(=O)c1ccc(-c2cccc(-c3nc(-c4ccc(F)cc4)cc(C(F)(F)F)n3)c2)s1 | 228 |
| CCc1nc(/C=C/c2cn(-c3ccccc3)nc2OCc2ccc(OCc3nc(-c4ccc(CC(=O)O)cc4)oc3C)c(OC)c2)co1 | 117 to 119 |
| COc1ccc2c3c1OC1C[C@@H](O)C=CC31CCN(C(=O)NC(C)C)C2 (stereo partly drawn) | 106 to 108 |
| O=Cc1cccc(OCc2ccccc2)c1Br | 125 to 126 |
| CN(c1cc2c3c(c1)CCCC3(C)CCC2)c1ncc(C(=O)O)cn1 | > 300 |
| CN1CCC(=C2c3ccc(Cl)cc3C(=NO)Cc3cccnc32)CC1 | 172 to 175 |
| COC(=O)NC1CCc2sc(C3=NNC(=O)CC3)cc2C1 (stereo not drawn) | 205 to 206 |
| CCCCCCCCCCCCCCCCCCOc1cc(C(N)=O)cc([N+](=O)[O-])c1 | 117 to 120 |
| COc1ccc(C=NNc2ccc(S(N)(=O)=O)cc2)cc1 | 228 to 231 |
| COc1ccc(C2(C3CCCCC3=O)CCC(=O)CC2)c2c1OCCO2 (stereo not drawn) | 268 to 269 |
| CCOC(=O)c1c2ccc(Cl)cc2c(-c2ccccc2)n1C1=CCC(=O)C=C1 | 94 to 95 |
| COc1ccc(Cc2ncc(CO)c3cc(OC)c(OC)cc23)cc1OC | 140 to 146 |
| CC(C)(C)OC(=O)NCCCCCC(=O)OCC1OC(n2cc(C=CBr)c(=O)[nH]c2=O)CC1O (stereo not drawn) | 204 to 205 |
| CCCS(=O)(=O)c1ccc(NS(=O)(=O)c2cccs2)c2[nH]c(C(=O)O)cc12 | 247 to 248 |

| SMILES | melting point [°C] |
| --- | --- |
| COCc1c(OCc2ccccc2)ccc2c1CCCC2=O | 55 to 56 |
| Cc1ccc(C(F)(F)c2ccc(C3CCCN4CCS(=O)(=O)N=C34)cc2)cc1 (stereo not drawn) | 190 to 191 |
| CC(C)Oc1ccc(-c2nn(Cc3oc4cccc(F)c4c(=O)c3-c3cccc(F)c3)c3ncnc(N)c23)cc1F | 156 to 159 |
| CCS(=O)(=O)Nc1cccc(COc2cc(F)cc(Nc3ccc(I)cc3F)c2C(N)=O)c1 | 170 |
| CN1CCN(C(=O)CN2C(=O)C(NC(=O)OCc3ccccc3)N=C(c3ccccc3)c3ccccc32)CC1 (stereo not drawn) | 200 to 202 |
| COC(=O)C#Cc1cccc(C(=O)OC)c1 | 96 to 97 |
| O=C(Nc1nccs1)C(CC1CCCC1)c1ccc(F)c(C(F)(F)F)c1 (stereo not drawn) | 125 to 127 |
| CC(C)(C)OC(=O)NCC(=O)c1ccc(OCc2ccccc2)cc1 | 75 to 76 |
| Cc1c(Br)cc(Cl)c(NS(=O)(=O)c2n[nH]c(NC=O)n2)c1Cl | > 290 |
| O=[N+]([O-])c1oc2cc3c(cc2c1-c1ccccc1)OCO3 | 180 to 183 |
| O=C1C(=Cn2ccnc2)CSc2ccccc21 | 139 to 140 |
| COc1ccc2c(c1)N(CCCCl)c1cccc(S(=O)(=O)N(C)C)c1S2 | 124 to 126 |
| Cc1c(-c2ccccc2)oc2c(C(=O)NCCCO)cccc2c1=O | 191 to 193 |
| CS(=O)(=O)c1ccc(-c2ccc(C3C(CCC(O)c4ccc(F)cc4)C(=O)N3c3ccc(F)cc3)cc2)cc1 (stereo not drawn) | 111 |
| CCCOc1cccc2c1C(N)=NS(=O)(=O)N2 | 229 to 230 |
| Cc1ccc(C(=O)N(C(C)C)C(C)C)c(C(=O)O)c1F | 147 to 149 |
| CNC=Nc1cnc2ccccc2c1 | 142 to 143 |
| Cc1ccc(C(O)(Cc2nnnn2C)c2ccc(C)cc2C)c(C)c1 | 175 to 177 |
| CC(=O)C1=C(C)NC(C)=C(C(=O)CCCCCCCN2CCC(c3ccccc3)(c3ccccc3)CC2)C1c1cccc([N+](=O)[O-])c1 (stereo not drawn) | 141 to 145 |
| CCOC(=O)c1cnc2c(c1O)CCCCCCCC2 | 212 to 230 |
| Ic1ccnc2c1CCCN2 | 117 to 118 |
| CN1C(=O)Cn2c(nn(Cc3ccccc3)c2=O)-c2cc(Cl)ccc21 | 120 to 122 |
| COc1ccc(NC(=O)N(Cc2ccccn2)C2CCCCCC2)c(NC(=O)c2cc(C(C)(C)C)c(O)c(C(C)(C)C)c2)c1 | 165 to 166 |
| CN1CCC(N(C2CC2)S(=O)(=O)c2ccc(Nc3nccc(Nc4ccc(F)cc4)n3)cc2)CC1 | 218 |
| COC(=O)[C@H](Cc1ccc(-c2ccccc2)cc1)NC(=O)OC(C)(C)C | 83 to 85 |

| SMILES | melting point [°C] |
| --- | --- |
| Cc1c(Cl)cccc1NCc1ccccc1Cl | 63 to 66 |
| O=C(O)c1csc(CO)c1 | 149 |
| Cc1c(C(=O)c2ccc(O)cc2)oc2ccc([N+](=O)[O-])cc12 | 235 |
| O=C(CCCCC1(C(=O)O)CC1)CCCCC1(C(=O)O)CC1 | 132 to 134 |
| CC(=O)n1cc(Cl)c(-c2cccc(C(F)(F)F)c2)c1 | 70 to 71.5 |
| Cc1cccc(C(=O)O)c1NC(=O)/C=C1\SCC(=O)N1C | 187 |
| CC(C)n1cnc2c(NCc3cc(O)ccc3O)nc(NC[C@@H](C)O)nc21 | 162 to 164 |
| COc1ccc(-c2cnc3cc4cnn(C(C)=O)c4cc3n2)cc1F | 261 to 265 |
| CC(=O)N(CCCC(=O)c1ccccc1)C(C)C | 36 to 39 |
| N#CC(C#N)=CNc1cc(C(F)(F)F)ccc1Cl | 166 to 169 |
| O=C(O)[C@@H]1CCCN1C(=O)C1CCCCN1 (stereo partly drawn) | 181 |
| CCOC(=O)C1CCc2c(sc3ccc(C)cc23)C1 (stereo not drawn) | 68 to 69 |
| Cc1nn(-c2ccccn2)c2[nH]c3cccc(C(=O)O)c3c(=O)c12 | 303 to 306 |
| BrCc1ccc2ccccc2c1Br | 106 to 108 |
| CCCc1nc2c(N)nc3cc(OC4CCOC4)ccc3c2n1CC(C)C (stereo not drawn) | 178 to 182 |
| CCOc1ccc(Nc2n[nH]c3ncnc(Nc4cccc(Cl)c4)c23)cc1 | 232 to 233 |
| O=C(O)c1cc2ccc(OCc3ccccc3)cc2o1 | 199 to 201 |
| COc1cc(OC)nc(C2(O)OC(=O)c3c(Cl)ccc(Cl)c32)n1 (stereo not drawn) | 161 to 175 |
| CN1CCC23CC(=O)CCC2(O)C1Cc1cccc(O)c13 (stereo not drawn) | 233 to 236 |
| CC(C)(C)c1cc(CCc2ccccc2NC(=O)N2CCN(C(=O)c3ccccc3)CC2)cc(C(C)(C)C)c1O | 207 to 209 |
| NS(=O)(=O)c1ccc(-c2cc(F)c(F)cc2-c2ccc(F)cc2)cc1 | 190 to 192 |
| COc1ccc2ccc(C(N)=O)c(OC(C)C)c2c1 | 172 to 174 |
| C#CCC1(O)CCN(c2ccc(N3C[C@H](CNC(C)=O)OC3=O)cc2F)CC1 | 166 to 167 |
| COC(=O)/C=C/C(=O)O[C@@H](C)C(=O)N1CCOCC1 | 79 to 82 |
| CC(C)(O)c1nnc2ccc(-c3c(-c4ccc(F)cc4F)nc4n3CCC4)nn12 | 222 to 223 |

| SMILES | melting point [°C] |
| --- | --- |
| CCCSc1nc2c(cc1C#N)C(=O)CC(C)(C)C2 | 100 to 102 |
| CC(=O)NC[C@H]1CN(c2ccc(N3CCC(n4nnc(N5CCN(C)CC5)n4)CC3)c(F)c2)C(=O)O1 | 174 to 176 |
| CCOC(=O)c1cc2c(O)nncc2nc1Nc1ccccc1 | 257 to 260 |
| CC(=O)N(CC1CC(c2ccc(Cl)cc2)=NO1)c1nnc(C)s1 (stereo not drawn) | 195 to 197 |
| CCCCN(CCCC)c1ccc(C=Cc2cc(C)c(C=CC3=C(C#N)C(=C(C#N)C#N)OC3(c3ccccc3)C(F)(F)F)cc2C)c(OC)c1 (stereo not drawn) | 177 to 179 |
| O=C(Cc1ccccc1)N1CCc2[nH]c(=O)n3nc(-c4ccccc4F)nc3c2C1 | 310 to 313 |
| Fc1ccc(-c2nc(SC(F)(F)C(F)F)[nH]c2-c2ccncc2)cc1 | 242 to 248 |
| CC(C)n1nc(-c2cc(C#N)c(Cl)nc2-c2ccccc2)ccc1=O | 191 to 192 |
| C=C1C2CCC(=O)C23CCC(C3)C1(C)C (stereo not drawn) | 77 to 79 |
| CCCCCCCCCCCCCCOc1ccc(C(=O)Cc2ccc([N+](=O)[O-])cc2)cc1 | 84 to 85 |
| NC(=O)COc1ccc(C(=O)CN2CCN(c3ccncc3)CC2)cc1 | 247 to 248 |
| O=c1[nH][nH]c(=O)c2c(O)c3ccc(I)cc3nc12 | 243 to 244 |
| CC1(C)Oc2ccc(C#N)cc2C(Oc2ccnc(O)c2)C1O (stereo not drawn) | 249 to 250 |
| COc1ccc(S(=O)C(C(=O)NO)c2ccccc2)cc1 (stereo not drawn) | 135 |
| Cc1nc2c([N+](=O)[O-])cc3nc(O)c(O)nc3c2nc1C | > 300 |
| CCOC(=O)C1=C(C)NC(C)=C(C(=O)OCC)C1c1ccccc1/C=C/C(=O)OC1CCCCCC1 | 192 to 194 |
| Cc1c(NC(=O)c2ccc(OC[C@@H]3CCCO3)cc2)ccc2cc(CNCC(C)(C)C)[nH]c12 | 168 |
| Cc1ccc(Sc2nc(Cl)cc(OCCOc3ccccc3)n2)cc1 | 128 to 132 |
| CC(C)(C)c1ncc(C(=C(Cl)Cl)C(F)(F)F)cn1 | 58 |
| CC1(C)C(=O)N(c2ccc(C#N)c(C(F)(F)F)c2)C(=O)N1CCCC(=O)O | 179 to 180 |
| COC(=O)CCCCC(C[N+](=O)[O-])SCC(=O)O (stereo not drawn) | 85 to 91 |
| CS(=O)CC(=O)c1ccon1 (stereo not drawn) | 164 to 166 |
| O=C(O)c1ccc2cc(-c3ccc(OCC(O)CO)c(C45CC6CC(CC(C6)C4)C5)c3)ccc2c1 (stereo not drawn) | 278 |
